# Laboratory results from ChEMBL document CHEMBL1127585, “Novel 1-phenylcycloalkanecarboxylic acid derivatives are potent and selective sigma 1 ligands” (J Med Chem, 1994).
# Experiments:
# [1] = molecular target: T1, Sigma non-opioid intracellular receptor 1 (Rattus norvegicus, UniProt Q9R0C9); experiment: Tested for its binding affinity towards sigma-1 site in rat brain using E3H1-(+)-SKF 10047 as radioligand in rat brain; assay type: tissue-based
# [2] = molecular target: T2, Muscarinic acetylcholine receptor M1 (Homo sapiens, UniProt P11229); experiment: Binding affinity towards muscarinic m1 receptor
# T2 sequence (P11229 whole entry): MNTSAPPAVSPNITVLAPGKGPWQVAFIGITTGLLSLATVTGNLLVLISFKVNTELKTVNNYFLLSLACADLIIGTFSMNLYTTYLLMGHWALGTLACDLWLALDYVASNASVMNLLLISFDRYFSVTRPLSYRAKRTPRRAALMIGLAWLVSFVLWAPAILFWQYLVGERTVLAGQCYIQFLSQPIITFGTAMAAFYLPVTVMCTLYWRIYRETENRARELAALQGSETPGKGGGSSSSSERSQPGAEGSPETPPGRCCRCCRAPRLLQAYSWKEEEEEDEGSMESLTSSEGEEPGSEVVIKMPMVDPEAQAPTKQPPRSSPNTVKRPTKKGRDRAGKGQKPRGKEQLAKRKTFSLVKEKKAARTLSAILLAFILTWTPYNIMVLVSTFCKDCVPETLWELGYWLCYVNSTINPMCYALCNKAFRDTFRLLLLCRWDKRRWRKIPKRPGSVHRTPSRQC
# Glutamate NMDA receptor = experiment: Binding affinity towards PCP (1-(1-phenylcyclohexyl)piperidine) receptor.; assay type: protein-complex assay
# [3] = molecular target: Sigma non-opioid intracellular receptor 1 (Rattus norvegicus) (UniProt Q9R0C9); experiment: Ratio between the Ki values of sigma-2 and sigma-1 receptors
# Chain of Sigma non-opioid intracellular receptor 1 (Rattus norvegicus) (Q9R0C9 whole entry): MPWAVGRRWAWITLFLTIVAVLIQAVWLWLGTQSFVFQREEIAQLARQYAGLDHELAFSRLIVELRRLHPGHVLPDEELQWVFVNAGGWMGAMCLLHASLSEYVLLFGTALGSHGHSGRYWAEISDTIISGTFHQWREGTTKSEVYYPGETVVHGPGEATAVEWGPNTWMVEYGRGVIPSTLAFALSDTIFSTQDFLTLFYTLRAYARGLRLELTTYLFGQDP
# [4] = molecular target: T3, Muscarinic acetylcholine receptor M2 (Homo sapiens, UniProt P08172); experiment: Binding affinity towards muscarinic m2 receptor
# T3 sequence (P08172 whole entry): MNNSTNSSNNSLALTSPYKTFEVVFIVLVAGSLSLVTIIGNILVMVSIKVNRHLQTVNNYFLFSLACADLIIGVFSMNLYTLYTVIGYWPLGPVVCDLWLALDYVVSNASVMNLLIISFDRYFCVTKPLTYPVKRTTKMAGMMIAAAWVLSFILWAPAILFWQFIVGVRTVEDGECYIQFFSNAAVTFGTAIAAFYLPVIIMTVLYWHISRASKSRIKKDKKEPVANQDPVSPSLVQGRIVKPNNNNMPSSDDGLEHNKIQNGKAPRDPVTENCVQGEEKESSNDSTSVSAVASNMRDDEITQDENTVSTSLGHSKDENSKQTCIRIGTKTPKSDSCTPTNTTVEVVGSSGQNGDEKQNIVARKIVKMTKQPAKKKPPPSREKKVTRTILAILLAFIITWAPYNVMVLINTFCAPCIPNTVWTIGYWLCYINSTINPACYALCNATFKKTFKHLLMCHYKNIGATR
# Sigma 2 receptor [5] = experiment: Tested for its binding affinity towards sigma-2 site in rat brain using [3H]DTG as radioligand; assay type: tissue-based
# [6] = Ratio between the Ki values of m1 and sigma-1 receptors
# [7] = molecular target: T1, Sigma non-opioid intracellular receptor 1; experiment: Tested for its binding affinity towards sigma-1 site in rat brain, using [3H]DTG as radioligand; assay type: tissue-based
# [8] = molecular target: T1, Sigma non-opioid intracellular receptor 1; experiment: Tested for its binding affinity towards sigma-1 site in rat brain, using [3H]-(+)-SKF- 10047 as radioligand; assay type: tissue-based
# Sigma 2 receptor [9] = experiment: Tested for its binding affinity towards sigma-2 site using [3H]-DTG as radioligand
# [10] = molecular target: T1, Sigma non-opioid intracellular receptor 1; experiment: Tested for its binding affinity towards sigma-1 site using E3H1-(+)-SKF 10047 as radioligand in rat brain; assay type: tissue-based
# T1 sequence (Q9R0C9 whole entry): as the sequence (Q9R0C9 whole entry) above
smiles,measurement,setting,value
O=C(NCOCCN1CCOCC1)C1(c2ccc(Cl)c(Cl)c2)CCCCC1,Ki,[1],32 nM
same,Ki,[2],> 10000 nM
same,Ki,Glutamate NMDA receptor,Not Active
same,Ratio,[3],51
same,Ki,[4],> 10000 nM
same,Ki,Sigma 2 receptor [5],1640 nM
same,Ratio,[6],> 310
CCN(CC)CCOCCOC(=O)C1(c2ccc(OC)cc2)CCCC1,Ki,[1],59 nM
same,Ki,[2],1060 nM
same,Ratio,[3],25
same,Ki,[4],692 nM
same,Ki,Sigma 2 receptor [5],1500 nM
same,Ratio,[6],18
CCN(CC)CCOCCOC(=O)C1(c2ccc(Cl)cc2)CCCC1,Ki,[1],24 nM
same,Ki,[2],75 nM
same,Ki,Glutamate NMDA receptor,Not Active
same,Ratio,[3],27
same,Ki,[4],97 nM
same,Ki,Sigma 2 receptor [5],648 nM
same,Ratio,[6],3.1
c1ccc(CCCCCNCCCCc2ccccc2)cc1,Ki,[7],2 nM
O=C(OCCN1CCOCC1)C1(c2ccccc2)CCCCC1,Ki,[8],44 nM
CCN(CC)CCOCNC(=O)C1(c2ccc(Cl)c(Cl)c2)CCCCC1,Ki,[1],27 nM
same,Ki,[2],581 nM
same,Ki,Glutamate NMDA receptor,Not Active
same,Ratio,[3],20
same,Ki,[4],500 nM
same,Ki,Sigma 2 receptor [5],527 nM
same,Ratio,[6],22
CCN(CC)CCOCCNC(=O)C1(c2ccccc2)CCCC1,Ki,[1],215 nM
same,Ki,[2],> 10000 nM
same,Ki,Glutamate NMDA receptor,Not Active
same,Ratio,[3],13
same,Ki,[4],4900 nM
same,Ki,Sigma 2 receptor [5],2840 nM
same,Ratio,[6],> 46
C=CCN1CCC2c3cc(O)ccc3CC1C2C (stereo unspecified),Ki,Glutamate NMDA receptor,Not Active
same,Ki,Sigma 2 receptor [9],44 nM
same,Ki,[10],67 nM
CCN(CC)CCOCCOCC1(c2ccccc2)CCCC1,Ki,[1],27 nM
same,Ki,[2],910 nM
same,Ki,Glutamate NMDA receptor,Not Active
same,Ratio,[3],17
same,Ki,[4],844 nM
same,Ki,Sigma 2 receptor [5],463 nM
same,Ratio,[6],34
CCN(CC)CCOCCNCC1(c2ccccc2)CCCC1,Ki,[1],884 nM
same,Ki,[2],1700 nM
same,Ki,Glutamate NMDA receptor,Not Active
same,Ratio,[3],1.2
same,Ki,[4],2270 nM
same,Ki,Sigma 2 receptor [5],1100 nM
same,Ratio,[6],1.9
O=C(OCOCCN1CCOCC1)C1(c2ccc(Cl)c(Cl)c2)CCCCC1,Ki,[1],39 nM
same,Ki,[2],3110 nM
same,Ki,Glutamate NMDA receptor,Not Active
same,Ratio,[3],25
same,Ki,[4],1190 nM
same,Ki,Sigma 2 receptor [5],981 nM
same,Ratio,[6],80
CCN(CC)CCOCOC(=O)C1(c2ccc(Cl)c(Cl)c2)CCCCC1,Ki,[1],22 nM
same,Ki,[2],20 nM
same,Ki,Glutamate NMDA receptor,Not Active
same,Ratio,[3],30
same,Ki,[4],22 nM
same,Ki,Sigma 2 receptor [5],667 nM
same,Ratio,[6],0.9
CCN(CC)CCOCCOC(=O)C1(c2ccccc2)CC1,Ki,[1],45 nM
same,Ki,[2],> 10000 nM
same,Ki,Glutamate NMDA receptor,Not Active
same,Ratio,[3],65
same,Ki,[4],> 10000 nM
same,Ki,Sigma 2 receptor [5],2910 nM
same,Ratio,[6],> 220
CCN(CC)CCOCCOC(=O)C(C)c1ccccc1 (stereo unspecified),Ki,[1],40 nM
same,Ki,[2],> 10000 nM
same,Ki,Glutamate NMDA receptor,Not Active
same,Ratio,[3],78
same,Ki,[4],> 10000 nM
same,Ki,Sigma 2 receptor [5],3110 nM
same,Ratio,[6],> 250
CCN(CC)CCOCCN(C)CC1(c2ccccc2)CCCC1,Ki,[1],34 nM
same,Ki,[2],843 nM
same,Ki,Glutamate NMDA receptor,Not Active
same,Ratio,[3],32
same,Ki,[4],1570 nM
same,Ki,Sigma 2 receptor [5],1100 nM
same,Ratio,[6],25
CCN(CC)CCOCCOC(=O)C1(c2ccccc2)CCCCC1,Ki,[1],34 nM
same,Ki,[2],135 nM
same,Ki,Glutamate NMDA receptor,Not Active
same,Ratio,[3],23
same,Ki,[4],145 nM
same,Ki,Sigma 2 receptor [5],780 nM
same,Ratio,[6],4
O=C(OCOCCN1CCCC1)C1(c2ccc(Cl)c(Cl)c2)CCCCC1,Ki,[1],32 nM
same,Ki,[2],63 nM
same,Ki,Glutamate NMDA receptor,Not Active
same,Ratio,[3],22
same,Ki,[4],74 nM
same,Ki,Sigma 2 receptor [5],688 nM
same,Ratio,[6],2
CCN(CC)CCOCCOC(=O)C1(c2ccccc2)CCCC1 [CARBETAPENTANE],Ki,[2],76 nM
same,Ki,Glutamate NMDA receptor,Not Active
same,Ki,[4],167 nM
Cc1ccccc1NC(=N)Nc1ccccc1C [DITOLYLGUANIDINE],Ki,Glutamate NMDA receptor,Not Active
